# Results reported in the supplement of paper PMC10307832.
# Experiments:
# Test in all cases: relative viability (nuclei count vs DMSO), 5 days (fraction); higher = more cells survive
# [1] = system: SW 1573
# How it was run: (§1)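 Five library-drug doses in √10 steps were combined with a fixed anchor-drug dose, or a single drug was given alone, by pin tool to lung cancer cell lines in 1536-well plates the day after seeding. Nuclei were stained and counted after 5 days. Relative viability is the nuclei count in treated wells over that in vehicle wells, taken as the median of duplicate plates.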
# [2] = system: LXF-289
# How it was run: as §1
# [3] = system: PC-14
# How it was run: as §1
# [4] = system: EMC-BAC-2
# How it was run: as §1
# [5] = system: NCI-H2023
# How it was run: as §1
# [6] = system: H3255
# How it was run: as §1
# [7] = system: NCI-H2009
# How it was run: as §1
# [8] = system: NCI-H1734
# How it was run: as §1
# [9] = system: NCI-H661
# How it was run: as §1
# [10] = system: HOP-62
# How it was run: as §1
# [11] = system: NCI-H1915
# How it was run: as §1
# [12] = system: NCI-H322M
# How it was run: as §1
# [13] = system: NCI-H2085
# How it was run: as §1
# [14] = system: NCI-H2126
# How it was run: as §1
# [15] = system: EPLC-272H
# How it was run: as §1
# [16] = system: SK-LU-1
# How it was run: as §1
# [17] = system: LCLC-97TM1
# How it was run: as §1
# [18] = system: NCI-H1993
# How it was run: as §1
# [19] = system: NCI-H647
# How it was run: as §1
# [20] = system: NCI-H2347
# How it was run: as §1
# [21] = system: NCI-H727
# How it was run: as §1
smiles,measurement,setting,value
COc1nc(C)cnc1NS(=O)(=O)c1cccnc1-c1ccc(-c2nnco2)cc1 [Zibotentan] + Cc1cc(Nc2cc(N3CCN(C)CC3)nc(Sc3ccc(NC(=O)C4CC4)cc3)n2)n[nH]1 [Tozasertib] (partner 0.1 µM),relative viability,[1]; first compound 0.08 µM,0.229
same,relative viability,[1]; first compound 0.8 µM,0.257
same,relative viability,[1]; first compound 2.53 µM,0.221
same,relative viability,[2]; first compound 0.08 µM,0.212
same,relative viability,[2]; first compound 0.253 µM,0.161
same,relative viability,[2]; first compound 0.8 µM,0.227
same,relative viability,[2]; first compound 2.53 µM,0.225
same,relative viability,[3]; first compound 0.08 µM,0.555
same,relative viability,[3]; first compound 0.253 µM,0.527
same,relative viability,[3]; first compound 0.8 µM,0.583
same,relative viability,[3]; first compound 2.53 µM,0.567
same,relative viability,[4]; first compound 0.08 µM,0.286
same,relative viability,[4]; first compound 0.8 µM,0.293
same,relative viability,[4]; first compound 2.53 µM,0.274
same,relative viability,[5]; first compound 0.08 µM,0.356
same,relative viability,[5]; first compound 0.253 µM,0.254
same,relative viability,[5]; first compound 0.8 µM,0.298
same,relative viability,[5]; first compound 2.53 µM,0.387
same,relative viability,[6]; first compound 0.08 µM,0.693
same,relative viability,[6]; first compound 0.253 µM,0.604
same,relative viability,[6]; first compound 0.8 µM,0.742
same,relative viability,[6]; first compound 2.53 µM,0.888
same,relative viability,[7]; first compound 0.08 µM,0.769
same,relative viability,[7]; first compound 0.253 µM,0.72
same,relative viability,[7]; first compound 0.8 µM,0.778
same,relative viability,[7]; first compound 2.53 µM,0.756
same,relative viability,[8]; first compound 0.08 µM,0.283
same,relative viability,[8]; first compound 0.253 µM,0.253
same,relative viability,[8]; first compound 0.8 µM,0.247
same,relative viability,[8]; first compound 2.53 µM,0.326
same,relative viability,[9]; first compound 0.08 µM,0.369
same,relative viability,[9]; first compound 0.253 µM,0.334
same,relative viability,[9]; first compound 0.8 µM,0.347
same,relative viability,[9]; first compound 2.53 µM,0.364
same,relative viability,[10]; first compound 0.08 µM,0.333
same,relative viability,[10]; first compound 0.253 µM,0.371
same,relative viability,[10]; first compound 0.8 µM,0.428
same,relative viability,[10]; first compound 2.53 µM,0.359
same,relative viability,[11]; first compound 0.08 µM,0.453
same,relative viability,[11]; first compound 0.253 µM,0.409
same,relative viability,[11]; first compound 0.8 µM,0.428
same,relative viability,[11]; first compound 2.53 µM,0.417
same,relative viability,[12]; first compound 0.08 µM,0.464
same,relative viability,[12]; first compound 0.253 µM,0.479
same,relative viability,[12]; first compound 0.8 µM,0.496
same,relative viability,[12]; first compound 2.53 µM,0.534
same,relative viability,[13]; first compound 0.08 µM,0.788
same,relative viability,[13]; first compound 0.253 µM,0.698
same,relative viability,[13]; first compound 0.8 µM,0.703
same,relative viability,[13]; first compound 2.53 µM,0.821
same,relative viability,[14]; first compound 0.08 µM,0.891
same,relative viability,[14]; first compound 0.8 µM,0.813
same,relative viability,[14]; first compound 2.53 µM,0.875
same,relative viability,[15]; first compound 0.08 µM,0.264
same,relative viability,[15]; first compound 0.253 µM,0.234
same,relative viability,[15]; first compound 0.8 µM,0.331
same,relative viability,[15]; first compound 2.53 µM,0.281
same,relative viability,[16]; first compound 0.08 µM,0.327
same,relative viability,[16]; first compound 0.253 µM,0.283
same,relative viability,[16]; first compound 0.8 µM,0.336
same,relative viability,[16]; first compound 2.53 µM,0.424
same,relative viability,[17]; first compound 0.08 µM,0.228
same,relative viability,[17]; first compound 0.253 µM,0.237
same,relative viability,[17]; first compound 0.8 µM,0.21
same,relative viability,[17]; first compound 2.53 µM,0.233
same,relative viability,[18]; first compound 0.08 µM,0.591
same,relative viability,[18]; first compound 0.253 µM,0.583
same,relative viability,[18]; first compound 0.8 µM,0.592
same,relative viability,[18]; first compound 2.53 µM,0.606
same,relative viability,[19]; first compound 0.08 µM,0.307
same,relative viability,[19]; first compound 0.253 µM,0.183
same,relative viability,[19]; first compound 0.8 µM,0.298
same,relative viability,[19]; first compound 2.53 µM,0.262
same,relative viability,[20]; first compound 0.253 µM,0.49
same,relative viability,[20]; first compound 0.8 µM,0.432
same,relative viability,[20]; first compound 2.53 µM,0.537
same,relative viability,[21]; first compound 0.08 µM,0.692
same,relative viability,[21]; first compound 0.253 µM,0.624
same,relative viability,[21]; first compound 0.8 µM,0.629
same,relative viability,[21]; first compound 2.53 µM,0.648
